Assays:
[1] = PK study in rat (bioavailability); assay type: in vivo; conditions: plasma, oral vs intravenous administration
Method: In this study, the pharmacokinetics of the present compound can be evaluated. Specifically, a 7-week-old SD-type or WKY-type rat received the intravenous administration of a solution of the present compound in saline or the oral administration of a suspension of the present compound in carboxymethylcellulose or methylcellulose. Blood was collected from the rat at each time below.
Intravenous administration: 5 minutes, 15 minutes, 30 minutes, 1 hour, 2 hours, 4 hours, 6 hours, and 24 hours after administration
Oral administration: 15 minutes, 30 minutes, 1 hour, 2 hours, 4 hours, 6 hours, and 24 hours after administration
Plasma was collected from the blood, the levels of the present compound in the plasma were measured by a LC-MS method, and then the pharmacokinetic parameters were calculated on the basis of the level changes.

[2] = Brain penetration study in rat; assay type: in vivo; conditions: brain and plasma, unbound brain-to-plasma drug concentration ratio
Method: In this study, the brain penetration of the present compound can be evaluated. Specifically, a 7-week-old SD-type or WKY-type rat received the subcutaneous administration of a solution of the present compound in saline or the oral administration of a suspension of the present compound in methylcellulose. Plasma and brain were collected from the treated rat 0.5 hour, 1 hour or 2 hours after the administration, and then the levels of the present compound in the plasma and the brain were measured by a LC-MS method.
The protein binding ratios of the present compound to the plasma and the brain were measured by an equilibrium dialysis method.
The levels of the present compound in the plasma and the brain as well as the plasma and brain protein binding ratios are applied to the following formula, and thus Kp,uu,brain (Unbound brain-to-plasma drug concentration ratio) can be calculated. Kp,uu,brain=(level of the present compound in the brain×(100−brain protein binding ratio (%))/100)/(level of the present compound in the plasma×(100−plasma protein binding ratio (%))/100)

[3] = biological target: T1, Human dopamine D4 receptor (Homo sapiens, UniProt P21917); test: Agonistic/antagonistic activity in G protein dependent pathway (aequorin intracellular calcium luminescence), D4; assay type: cell-based; set-up: expressed in transfected cells; host or cells: CHO-K1 or HEK293 cells; conditions: for inhibition at 0.1 µM / inhibition at 1 µM: against 10 μM endogenous ligand, read-out: Inhibitory activity on each receptor (%): D4; for Emax at 0.1 µM / Emax at 1 µM: read-out: Maximal activity on each receptor (%): D4
T1 sequence (P21917 1-419): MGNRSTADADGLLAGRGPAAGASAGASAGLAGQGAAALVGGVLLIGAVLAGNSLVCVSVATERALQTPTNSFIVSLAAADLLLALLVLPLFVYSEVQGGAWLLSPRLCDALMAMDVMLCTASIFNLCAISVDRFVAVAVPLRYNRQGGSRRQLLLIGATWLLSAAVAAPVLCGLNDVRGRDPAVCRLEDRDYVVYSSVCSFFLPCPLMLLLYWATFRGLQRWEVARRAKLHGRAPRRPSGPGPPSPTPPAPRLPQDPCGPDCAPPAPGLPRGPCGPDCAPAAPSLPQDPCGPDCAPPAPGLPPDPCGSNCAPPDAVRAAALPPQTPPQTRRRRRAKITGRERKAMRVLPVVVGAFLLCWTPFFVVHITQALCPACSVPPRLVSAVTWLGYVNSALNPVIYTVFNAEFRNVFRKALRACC
Method: (§1) Plasmids encoding each receptor, aequorin and Gα16 were prepared, and the plasmids were transfected into CHO cells (Chinese Hamster Ovary cells) or HEK293 cells (Human Embryonic Kidney 293 cells) to prepare expressing cell lines.
(§2) The agonistic or antagonistic activity of the present compound in the G protein dependent pathway was evaluated on the basis of intracellular calcium levels as follows. CHO-K1 or HEK293 cell lines transfected with D2, D4, α1A, or α2A receptor genes were seeded in a 384-well plate, and incubated in a CO2 incubator at 37° C. for 24 hours, and then a solution of the present compound in DMSO was added into cells preloaded with coelenterazine to measure the change in luminescent signals with a FDSS (Hamamatsu Photonics K.K.). […] The agonistic activity of the present compound was calculated according to the measured luminescent signals, as the maximal activity (Emax) of the present compound. On the other hand, the antagonistic activity of the present compound was calculated according to the luminescent signals in wells with 10 μM of an endogenous ligand alone defined as 100%, as the inhibitory activity of the present compound to an endogenous ligand. EC50 value was calculated as the concentration of the present compound required to achieve a 50% response, and IC50 was calculated as the concentration of the present compound required to achieve a 50% inhibition of the Emax of an endogenous ligand.

[4] = biological target: T2, human adrenergic α1A receptor (Homo sapiens, UniProt P35348); test: Agonistic/antagonistic activity in G protein dependent pathway (aequorin intracellular calcium luminescence), α1A; assay type: cell-based; conditions: for Maximal activity on each receptor (%): α1A: 10 μM adrenaline = 100%; for inhibition at 0.1 µM / inhibition at 1 µM: against 10 μM endogenous ligand, read-out: Inhibitory activity on each receptor (%): α1A
T2 construct: expressed in transfected cells; host or cells: CHO-K1 or HEK293 cells
T2 sequence (P35348 1-466): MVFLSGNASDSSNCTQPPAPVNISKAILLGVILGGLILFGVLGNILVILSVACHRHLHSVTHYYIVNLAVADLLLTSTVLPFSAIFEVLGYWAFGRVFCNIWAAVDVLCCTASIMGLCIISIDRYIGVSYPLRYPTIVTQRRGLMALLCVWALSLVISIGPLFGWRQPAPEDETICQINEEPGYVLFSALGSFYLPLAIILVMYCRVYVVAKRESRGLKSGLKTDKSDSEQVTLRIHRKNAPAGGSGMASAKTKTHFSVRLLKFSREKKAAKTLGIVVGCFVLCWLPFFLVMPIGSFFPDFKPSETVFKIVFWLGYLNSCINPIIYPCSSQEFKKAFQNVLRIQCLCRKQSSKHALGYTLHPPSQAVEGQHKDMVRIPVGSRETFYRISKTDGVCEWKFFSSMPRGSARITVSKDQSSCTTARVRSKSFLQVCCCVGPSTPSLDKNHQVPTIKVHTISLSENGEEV
Method: as §1, §2

[5] = biological target: T1, Human dopamine D4 receptor; test: G protein independent pathway: β-arrestin recruit ability (PathHunter β-galactosidase); assay type: cell-based; set-up: expressed in transfected cells; conditions: β-arrestin recruitment, 90 minutes; 10 μM dopamine = 100%
Method: The activation of the G protein independent pathway was evaluated on the basis of the recruit ability of β-arrestin as follows. Cell lines transfected with D4 receptor genes were seeded in a 384-well plate, and incubated in a CO2 incubator at 37° C. for 24 hours, a solution of the present compound in DMSO was added into the cells, and then the cells were left at 37° C. for 90 minutes. Buffer containing β-galactosidase reaction substance (PathHunter Cell Assay Buffer, DiscoverRx) was added thereto, and luminescent signals in the wells were measured with a FDSS (Hamamatsu Photonics K.K.). […] The maximal activity (Emax) of the present compound was calculated according to the measured luminescent signals. EC50 value was calculated as the concentration of the present compound required to achieve a 50 response.

bioavailability [1] | Kp uu [2] | inhibition at 0.1 µM [3] | inhibition at 1 µM [3] | Emax at 0.1 µM [3] | Emax at 1 µM [3] | Maximal activity on each receptor (%): α1A ([4]; 0.1 μM) | inhibition at 0.1 µM ([4]; 0.1 μM) | Maximal activity on each receptor (%): α1A ([4]; 1 μM) | inhibition at 1 µM ([4]; 1 μM) | Maximal activity on D4 receptor (%) [5] | Structure (SMILES)
92.2% | 1.8 | 61% | 85% | 14% | 40% | 0.08% | -6.4% | 0.23% | -17% | 11% | Nc1ncc(CN2CCC(c3cncc(F)c3)CC2)cn1 [Example 46, 5-[4-(5-Fluoropyridin-3-yl)piperidin-1-ylmethyl]pyrimidin-2-amine]
27.6% | 0.8 | 58% | 78% | 27% | 64% | 0.04% | 2.7% | 0.01% | 2.6% | 6% | Cc1ncc(CN2CCC(c3ccccn3)CC2)c(C)n1 [Example 44, 2,4-Dimethyl-5-[4-(pyridin-2-yl)piperidin-1-ylmethyl]pyrimidine]
21.6% | 0.8 | 72% | 87% | 20% | 35% | 0.03% | -5.6% | 0.08% | -0.73% | 9% | Cc1ncc(CN2CCC(c3cccnc3)CC2)c(C)n1 [Example 45, 2,4-Dimethyl-5-[4-(pyridin-3-yl)piperidin-1-ylmethyl]pyrimidine]

Source: patent US9732065B2, “Cyclic aminomethyl pyrimidine derivative” (Sumitomo Dainippon Pharma Co., Ltd., priority 2013, dated 2017)
